The source made the active and inactive calls. No cut-off for these calls is given here.
Experiments:
[1] = molecular target: T1, Cytochrome P450 3A4 (Homo sapiens, UniProt P08684); test: Inhibition of human recombinant CYP3A4 assessed as biotransformation of […] measured every minute for 15 mins by fluorescence intensity assay; type: ADME
[2] = system: MCF7; test: Cytotoxicity against human MCF7 cells at 10 uM; type: functional, cell-based
[3] = molecular target: T1, Cytochrome P450 3A4; test: Inhibition of human recombinant CYP3A4 assessed as biotransformation of […] at 10 uM measured every minute for 15 mins by fluorescence intensity assay; type: ADME

T1 sequence (P08684 whole entry): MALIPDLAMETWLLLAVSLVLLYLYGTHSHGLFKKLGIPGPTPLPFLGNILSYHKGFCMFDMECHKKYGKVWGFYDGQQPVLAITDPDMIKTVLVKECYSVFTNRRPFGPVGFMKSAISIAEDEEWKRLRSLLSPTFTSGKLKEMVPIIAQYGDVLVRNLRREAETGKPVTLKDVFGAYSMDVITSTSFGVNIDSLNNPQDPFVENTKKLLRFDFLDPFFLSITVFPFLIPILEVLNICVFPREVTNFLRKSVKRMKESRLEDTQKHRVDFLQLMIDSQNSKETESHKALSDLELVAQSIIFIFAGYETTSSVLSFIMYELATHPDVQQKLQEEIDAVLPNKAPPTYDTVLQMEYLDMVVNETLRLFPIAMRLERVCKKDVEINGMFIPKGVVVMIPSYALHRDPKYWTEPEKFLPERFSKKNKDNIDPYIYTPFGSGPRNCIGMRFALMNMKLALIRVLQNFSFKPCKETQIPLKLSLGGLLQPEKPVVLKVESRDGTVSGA

Row | Ki [1] [nM] | Ki [3] | Compound | Activity [2]
1 | 1780 |  | COCO[C@H]([C@@H]1OC(C)(C)O[C@H]1CO)[C@H](CNC(=O)c1ccccc1)c1ccc2c(c1)OCO2 | inactive
2 |  |  | COCO[C@@H]([C@@H]1OC(C)(C)O[C@H]1COC(C)=O)[C@@H](CNC(=O)c1ccccc1)c1ccc2c(c1)OCO2 | inactive
3 |  |  | COCO[C@@H]([C@@H]1OC(C)(C)O[C@H]1CO[Si](C)(C)C(C)(C)C)[C@@H](CNC(=O)OC(C)(C)C)c1ccc2c(c1)OCO2 | inactive
4 |  |  | COCO[C@@H]([C@@H]1OC(C)(C)O[C@H]1CO[Si](C)(C)C(C)(C)C)[C@@H](CNC(=O)c1ccccc1)c1ccc2c(c1)OCO2 | inactive
5 |  |  | COCO[C@@H]([C@@H]1OC(C)(C)O[C@H]1CO[Si](c1ccccc1)(c1ccccc1)C(C)(C)C)[C@@H](CNC(=O)c1ccccc1)c1ccc2c(c1)OCO2 | inactive
6 | 70 |  | COCO[C@H]([C@@H]1OC(C)(C)O[C@H]1COS(=O)(=O)c1ccc(C)cc1)[C@H](CNC(=O)c1ccccc1)c1ccc2c(c1)OCO2 | inactive
7 |  |  | O=C(NC[C@H](c1ccc2c(c1)OCO2)[C@H](O)[C@H](O)[C@@H](O)CO)c1ccccc1 | inactive
8 |  | Not Active | COCO[C@H]([C@@H]1OC(C)(C)O[C@H]1CO[Si](C)(C)C(C)(C)C)[C@H](CO)c1ccc2c(c1)OCO2 | 
9 |  |  | CC1(C)O[C@@H]([C@H](O)[C@@H](CNC(=O)c2ccccc2)c2ccc3c(c2)OCO3)[C@H](CO[Si](C)(C)C(C)(C)C)O1 | inactive
10 |  |  | CC1(C)O[C@@H]([C@H](O)[C@@H](CNC(=O)c2ccccc2)c2ccc3c(c2)OCO3)[C@H](CO)O1 | inactive
11 |  |  | COCO[C@@H]([C@@H]1OC(C)(C)O[C@H]1COS(=O)(=O)c1ccc(C)cc1)[C@@H](CNC(=O)c1ccccc1)c1ccc2c(c1)OCO2 | inactive
12 |  | Not Active | CC(C)OC(=O)[C@H](c1ccc2c(c1)OCO2)[C@H](O)[C@@H]1OC(C)(C)O[C@H]1CO[Si](C)(C)C(C)(C)C | 
13 |  | Not Active | COCO[C@H]([C@@H]1OC(C)(C)O[C@H]1CO[Si](C)(C)C(C)(C)C)[C@H](CN=[N+]=[N-])c1ccc2c(c1)OCO2 | inactive
14 | 30 |  | COCO[C@H]([C@@H]1OC(C)(C)O[C@H]1CO[Si](C)(C)C(C)(C)C)[C@H](CNC(=O)c1ccccc1)c1ccc2c(c1)OCO2 | inactive
15 | 240 |  | COCO[C@H]([C@@H]1OC(C)(C)O[C@H]1CO[Si](C)(C)C(C)(C)C)[C@H](CNC(=O)OC(C)(C)C)c1ccc2c(c1)OCO2 | inactive
16 |  |  | COCO[C@@H]([C@@H]1OC(C)(C)O[C@H]1CO)[C@@H](CNC(=O)c1ccccc1)c1ccc2c(c1)OCO2 | inactive
17 |  |  | O=C(NC[C@@H](c1ccc2c(c1)OCO2)[C@@H](O)[C@H](O)[C@@H](O)CO)c1ccccc1 | inactive

Reference: ChEMBL document CHEMBL1156289, “Potent and selective inhibition of human cytochrome P450 3A4 by seco-pancratistatin structural analogs” (Bioorg Med Chem Lett, 2010)
